From US20060204980A1, “Colorectal cancer therapies” (priority 2004, published 2006) come the findings set out here.

Holding throughout (format): cell-based
The test system of test [1] is p53^+/+ HCT116 colorectal carcinoma cells. As to the kind of experiment: Western blotting of p53 pathway proteins in treated p53+/+ HCT116 cells. Here is the method: (§1) Cells were collected and centrifuged at 3,000 rpm for 5 minutes at 4° C., and washed in PBS (pH 7.2). The cell pellet was solubilized in lysis buffer (20 mM Tris, pH 7.2, 0.5% deoxycholate, 1% Triton X-100, 0.1% SDS, 150 mM NaCl, 1 mM EDTA) containing proteases inhibitors (Complete, Roche Applied Science) for 30 min at 4° C. The lysate was cleared by centrifugation for 15 minutes, and protein concentration was evaluated using a Bio-Rad protein assay system (Bio-Rad Laboratories, Hercules, Calif.). Samples (30 μg) were separated by SDS-polyacrylamide gel, transferred to nylon membranes (Millipore), and incubated with primary antibodies to p53 (Oncogene Research Products, FL-393, Santa Cruz Biotechnology, Inc., Santa Cruz, Calif.), p21^Waf1/Cip1 (Oncogene Research Products), XIAP (BD Transduction Laboratories), survivin (NOVUS Biologicals, Littleton, Colo.), MDM2 (Santa Cruz Biotechnology, Inc.), p14^ARF (NOVUS Biologicals), caspase-3 (Cell Signaling Technology), cleaved caspase-3 (Cell Signaling Technology), β-catenin (BD Transduction Laboratories), cyclin B1 (GNS1, Santa Cruz Biotechnology, Inc.), GSK3β (Santa Cruz Biotechnology, Inc.), or β-sactin (Sigma) with detection of reactive bands by chemiluminescence (Amersham). Cells were analyzed for hypodiploid DNA content by propidium iodide staining and flow cytometry as described in O'Connor et al., Cancer Cell, 2:43-54 (2002). Chemicals whose source is not explicitly listed were or can be obtained from Sigma.
To explore the link between GSK3β inhibition and p53 modulation, in vivo, HCT116 cells were treated with Li, TDZD or SB216763, and analyzed cells by Western blotting. p53^+/+ or p53^−/− HCT116 cells were incubated with the following GSK3β inhibitors, LiCl (Sigma, 30 mM), thiadiazolidinone-8 (TDZD) (Calbiochem, 0-20 μM), or SB216763 (Sigma, 20 μM), cells were harvested after 6-24 hours, and samples were analyzed by Western blotting as described in Example 2. […]
Background: Immunoblotting shows a protein as a band on a membrane.

In test [2] the test system is p53^−/− HCT116 colorectal carcinoma cells. The test can be described thus: Western blotting of p53 pathway proteins in treated p53-/- HCT116 cells. Here is the method:
as §1
To explore the link between GSK3β inhibition and p53 modulation, in vivo, HCT116 cells were treated with Li, TDZD or SB216763, and analyzed cells by Western blotting. p53^+/+ or p53^−/− HCT116 cells were incubated with the following GSK3β inhibitors, LiCl (Sigma, 30 mM), thiadiazolidinone-8 (TDZD) (Calbiochem, 0-20 μM), or SB216763 (Sigma, 20 μM), cells were harvested after 6-24 hours, and samples were analyzed by Western blotting as described in Example 2.

In test [3] the test system is wild-type (WT) or GSK3β^−/− primary murine embryonic fibroblasts (MEF) cells. As to the kind of experiment: Western blotting of p53 in wild-type or GSK3β-/- primary MEF cells. Also noted: dose or concentration left out as unconfirmed. The conditions noted are these: Purvalanol A, 6-24 hour. An excerpt: To confirm the link between GSK3β inhibition and p53 modulation in vivo, p53^+/+ HCT116 cells were transfected with wild-type GSK3β or a kinase-dead GSK3β dominant negative mutant (GSK3β DN mutant), previously described in Pap and Cooper, J. Biol. Chem., 273:19929-19932 (1998). Non-transformed wild-type (WT) or GSK3β^−/− primary murine embryonic fibroblasts (MEF) cells, described in Hoeflich et al., Nature, 406:86-90 (2000), were maintained in culture in DMEM supplemented with 10% FCS, 100 U/ml penicillin, and 100 μg/ml streptomycin (all from Invitrogen) in 5% CO2 at 37° C. […] Western blotting was performed as described in Example 2, to evaluate the expression of p53, p21^Waf1/Cip1 or β-actin at 6-24 hour intervals.

SMILES strings stand for the structures. Entries after “also recorded” stand apart in the source; their conditions may differ.

Turning to `CC(C)[C@H](CO)Nc1nc(Nc2cccc(Cl)c2)c2ncn(C(C)C)c2n1` [Purvalanol A], in test [1] (HCT116 cells), the “MDM2 expression (Western blot)” value is listed as “reduced expression”. For the same compound, the “p14^ARF expression (Western blot)” value in test [1] (HCT116 cells, relative to vehicle) was “upregulation of p14^ARF”. In test [1] (p53+/+ HCT116), the “XIAP expression (Western blot)” value is “no changes in the expression” and the “survivin expression (Western blot)” value is “loss of survivin expression; also recorded: time-dependent downregulation of survivin”. For the same compound, the “caspase-3 cleavage (Western blot)” value in test [1] (p53+/+ HCT116, 10 μM, 6-48 hour) is listed as “time-dependent cleavage of 32 kD proform caspase-3 to active caspase-3 fragments”. Further, in test [1] (p53+/+ HCT116, 6-24 hours), the “p21^Waf1/Cip1 expression (Western blot)” value is listed as “upregulation of p21^Waf1/Cip1” and the “p53 expression (Western blot)” value is listed as “time-dependent accumulation of p53”. Besides, in test [2], the “p53-reactive material (Western blot)” value is recorded as “did not modulate the expression of p53-reactive material” and the “survivin expression (Western blot)” value is given as “no significant changes in survivin levels”. The “p53 expression (Western blot)” value in test [3] is listed as “did not further modulate p53 expression”.
